Each structure is given as a SMILES string.

b-Raf (V600E), sequence (P15056 whole entry V600E): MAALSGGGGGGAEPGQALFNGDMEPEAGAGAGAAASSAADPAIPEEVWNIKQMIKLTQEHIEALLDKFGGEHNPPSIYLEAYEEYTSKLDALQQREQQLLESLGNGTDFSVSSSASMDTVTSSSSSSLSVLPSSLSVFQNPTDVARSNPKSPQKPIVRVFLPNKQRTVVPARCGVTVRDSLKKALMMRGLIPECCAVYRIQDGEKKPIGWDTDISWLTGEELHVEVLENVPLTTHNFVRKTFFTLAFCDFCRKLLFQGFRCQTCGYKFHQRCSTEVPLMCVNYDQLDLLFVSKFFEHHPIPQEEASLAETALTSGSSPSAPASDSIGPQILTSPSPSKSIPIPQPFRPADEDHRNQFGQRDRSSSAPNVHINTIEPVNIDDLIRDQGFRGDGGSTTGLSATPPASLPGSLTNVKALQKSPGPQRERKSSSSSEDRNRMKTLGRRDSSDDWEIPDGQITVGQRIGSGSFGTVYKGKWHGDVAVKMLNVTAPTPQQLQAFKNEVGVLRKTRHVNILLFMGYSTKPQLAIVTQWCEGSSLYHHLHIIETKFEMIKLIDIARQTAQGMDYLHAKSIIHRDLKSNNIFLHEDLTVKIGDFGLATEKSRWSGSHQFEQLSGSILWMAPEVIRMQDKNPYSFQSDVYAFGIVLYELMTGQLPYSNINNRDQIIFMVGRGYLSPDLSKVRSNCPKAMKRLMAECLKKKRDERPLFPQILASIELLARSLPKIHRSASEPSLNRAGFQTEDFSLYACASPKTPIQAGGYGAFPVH

This test concerns the target b-Raf (V600E) (Homo sapiens (Human), UniProt P15056, V600E). The following applies: read-out: b-Raf IC-50; AlphaScreen, 60 min pre-incubation, 3 hours reaction. Background: Alpha assays give light when donor and acceptor beads are brought close together.
Take `CCNc1nc(-c2cc(NC(=O)c3ccnc(C(C)(C)O)c3)ccc2C)cc(N2CCOC[C@H]2C)n1` [Example 712, (R)—N-(3-(2-(ethylamino)-6-(3-methylmorpholino)pyrimidin-4-yl)-4-methylphenyl)-2-(2-hydroxypropan-2-yl)isonicotinamide]: the IC50 was 12.1 nM.

Take `CCNc1nc(-c2cc(NC(=O)c3ccnc(C(C)(C)O)c3)ccc2C)cc(N2CCOC[C@@H]2C)n1` [Example 713, (S)—N-(3-(2-(ethylamino)-6-(3-methylmorpholino)pyrimidin-4-yl)-4-methylphenyl)-2-(2-hydroxypropan-2-yl)isonicotinamide]: the IC50 was 2.5 nM.

With `CCNc1nc(-c2cc(NC(=O)c3ccnc(C(C)(C)C#N)c3)ccc2C)cc(N2CCOC[C@@H]2C)n1` [Example 714, (S)-2-(2-cyanopropan-2-yl)-N-(3-(2-(ethylamino)-6-(3-methylmorpholino)pyrimidin-4-yl)-4-methylphenyl)isonicotinamide], the IC50 stood at 2.5 nM.

Take `CCNc1nc(-c2cc(NC(=O)c3cccc(C(F)(F)F)c3)cnc2C)cc(N2CCOCC2)n1` [Example 716, N-(5-(2-(ethylamino)-6-morpholinopyrimidin-4-yl)-6-methylpyridin-3-yl)-3-(trifluoromethyl)benzamide]: the IC50 was found to be 1.3 nM.

Turning to `CCNc1nc(-c2cc(NC(=O)c3ccnc(C(C)(C)C#N)c3)ccc2C)cc(N2CCOCC2)n1` [Example 717, 2-(2-cyanopropan-2-yl)-N-(3-(2-(ethylamino)-6-morpholinopyrimidin-4-yl)-4-methylphenyl)isonicotinamide], the IC50 was 2.9 nM.

For `CCNc1nc(-c2cc(NC(=O)c3ccnc(C(C)(C)C#N)c3)cnc2C)cc(N2CCOCC2)n1` [Example 718, 2-(2-cyanopropan-2-yl)-N-(5-(2-(ethylamino)-6-morpholinopyrimidin-4-yl)-6-methylpyridin-3-yl)isonicotinamide], the IC50 is 8.4 nM.

On to `CCNc1nc(-c2cc(NC(=O)c3cc(C(F)(F)F)c(=O)n(CC)c3)cnc2C)cc(N2CCOCC2)n1` [Example 720, 1-ethyl-N-(5-(2-(ethylamino)-6-morpholinopyrimidin-4-yl)-6-methylpyridin-3-yl)-6-oxo-5-(trifluoromethyl)-1,6-dihydropyridine-3-carboxamide], for which the IC50 amounted to 23.2 nM.

Take `CCNc1nc(-c2cc(NC(=O)c3ccnc(C(F)F)c3)cnc2C)cc(N2CCOCC2)n1` [Example 721, 2-(difluoromethyl)-N-(5-(2-(ethylamino)-6-morpholinopyrimidin-4-yl)-6-methylpyridin-3-yl)isonicotinamide]: the IC50 was 3.3 nM.

Consider `CCNc1nc(-c2cc(NC(=O)c3cccc(C(F)F)c3)cnc2C)cc(N2CCOCC2)n1` [Example 722, 3-(difluoromethyl)-N-(5-(2-(ethylamino)-6-morpholinopyrimidin-4-yl)-6-methylpyridin-3-yl)benzamide], for which the IC50 is 1.6 nM.

`CCNc1nc(-c2cc(NC(=O)c3ccnc(C(C)(C)O)c3)cnc2C)cc(N2CCOCC2)n1` [Example 723, N-(5-(2-(ethylamino)-6-morpholinopyrimidin-4-yl)-6-methylpyridin-3-yl)-2-(2-hydroxypropan-2-yl)isonicotinamide]: the IC50 came to 34.8 nM.

`CCNc1nc(-c2cc(NC(=O)c3ccnc(C(C)(C)C)c3)cnc2C)cc(N2CCOCC2)n1` [Example 724, 2-(tert-butyl)-N-(5-(2-(ethylamino)-6-morpholinopyrimidin-4-yl)-6-methylpyridin-3-yl)isonicotinamide]: the IC50 amounted to 20.5 nM.

`CCNc1nc(-c2cc(NC(=O)c3cccc(C(C)(C)C#N)c3)cnc2C)cc(N2CCOCC2)n1` [Example 726, 3-(2-cyanopropan-2-yl)-N-(5-(2-(ethylamino)-6-morpholinopyrimidin-4-yl)-6-methylpyridin-3-yl)benzamide]: the IC50 was found to be 9 nM.

Consider `CCNc1nc(-c2cc(NC(=O)c3cnnc(C4CC4)c3)cnc2C)cc(N2CCOCC2)n1` [Example 727, 6-cyclopropyl-N-(5-(2-(ethylamino)-6-morpholinopyrimidin-4-yl)-6-methylpyridin-3-yl)pyridazine-4-carboxamide], for which the IC50 amounted to 8.5 nM.

`CCNc1nc(-c2cc(NC(=O)c3ccnc(C4(C#N)CC4)c3)cnc2C)cc(N2CCOCC2)n1` [Example 728, 2-(1-cyanocyclopropyl)-N-(5-(2-(ethylamino)-6-morpholinopyrimidin-4-yl)-6-methylpyridin-3-yl)isonicotinamide]: the IC50 was 4.4 nM.

As to `CCNc1nc(-c2cc(NC(=O)c3ccnc(C4COC4)c3)cnc2C)cc(N2CCOCC2)n1` [Example 729, N-(5-(2-(ethylamino)-6-morpholinopyrimidin-4-yl)-6-methylpyridin-3-yl)-2-(oxetan-3-yl)isonicotinamide], the IC50 came out at 17.7 nM.

With `CCNc1nc(-c2cc(NC(=O)c3cnnc(C(C)(C)C#N)c3)cnc2C)cc(N2CCOCC2)n1` [Example 730, 6-(2-cyanopropan-2-yl)-N-(5-(2-(ethylamino)-6-morpholinopyrimidin-4-yl)-6-methylpyridin-3-yl)pyridazine-4-carboxamide], the IC50 turned out to be 27.2 nM.

`CCNc1nc(-c2cc(C(=O)Nc3ccccc3)ccc2C)cc(N2CCOCC2)n1` [Example 731, 3-(2-(ethylamino)-6-morpholinopyrimidin-4-yl)-4-methyl-N-phenylbenzamide]: the IC50 amounted to 4.4 nM.

Consider `CCNc1nc(-c2cc(C(=O)Nc3cccc(C(C)(C)C#N)c3)ccc2C)cc(N2CCOCC2)n1` [Example 732, N-(3-(2-cyanopropan-2-yl)phenyl)-3-(2-(ethylamino)-6-morpholinopyrimidin-4-yl)-4-methylbenzamide], for which the IC50 was found to be 2.2 nM.

As to `CCNc1nc(-c2cc(C(=O)Nc3cccc(C(F)F)c3)ccc2C)cc(N2CCOCC2)n1` [Example 733, N-(3-(difluoromethyl)phenyl)-3-(2-(ethylamino)-6-morpholinopyrimidin-4-yl)-4-methylbenzamide], the IC50 worked out at 0.8 nM.

For the compound `Cc1ccc(NC(=O)c2ccnc(C(C)(C)C#N)c2)cc1-c1cc(N2CCOCC2)nc(NCCO)n1` [Example 734, 2-(2-cyanopropan-2-yl)-N-(3-(2-((2-hydroxyethyl)amino)-6-morpholinopyrimidin-4-yl)-4-methylphenyl)isonicotinamide], the IC50 was 6.9 nM.

For `Cc1ncc(NC(=O)c2cccc(C(F)(F)F)c2)cc1-c1cc(N2CCOCC2)nc(NCCO)n1` [Example 735, N-(5-(2-((2-hydroxyethyl)amino)-6-morpholinopyrimidin-4-yl)-6-methylpyridin-3-yl)-3-(trifluoromethyl)benzamide], the IC50 came to 4.3 nM.

Regarding `Cc1ccc(NC(=O)c2cnnc(C(C)(C)C#N)c2)cc1-c1cc(N2CCOCC2)nc(NCCO)n1` [Example 737, 6-(2-cyanopropan-2-yl)-N-(3-(2-((2-hydroxyethyl)amino)-6-morpholinopyrimidin-4-yl)-4-methylphenyl)pyridazine-4-carboxamide], the IC50 turned out to be 17.9 nM.

`Cc1ncc(NC(=O)c2ccnc(C(C)(C)C#N)c2)cc1-c1cc(N2CCOCC2)nc(NC[C@H](C)O)n1` [Example 738, (S)-2-(2-cyanopropan-2-yl)-N-(5-(2-((2-hydroxypropyl)amino)-6-morpholinopyrimidin-4-yl)-6-methylpyridin-3-yl)isonicotinamide]: the IC50 was 33.2 nM.

For `Cc1ncc(NC(=O)c2cccc(C(F)(F)F)c2)cc1-c1cc(N2CCOCC2)nc(NC[C@H](C)O)n1` [Example 740, (S)—N-(5-(2-((2-hydroxypropyl)amino)-6-morpholinopyrimidin-4-yl)-6-methylpyridin-3-yl)-3-(trifluoromethyl)benzamide], the IC50 is 2.1 nM.

As to `Cc1ncc(NC(=O)c2ccnc(C(C)(C)C#N)c2)cc1-c1cc(N2CCOCC2)nc(NC[C@@H](C)O)n1` [Example 742, (R)-2-(2-cyanopropan-2-yl)-N-(5-(2-((2-hydroxypropyl)amino)-6-morpholinopyrimidin-4-yl)-6-methylpyridin-3-yl)isonicotinamide], the IC50 worked out at 38.6 nM.

As for `Cc1ncc(NC(=O)c2ccnc(C(C)(C)C#N)c2)cc1-c1cc(N2CCOCC2)nc(N[C@@H](C)CO)n1` [Example 744, (S)-2-(2-cyanopropan-2-yl)-N-(5-(2-((1-hydroxypropan-2-yl)amino)-6-morpholinopyrimidin-4-yl)-6-methylpyridin-3-yl)isonicotinamide], the IC50 came to 42.7 nM.

As for `Cc1ncc(NC(=O)c2cccc(C(F)(F)F)c2)cc1-c1cc(N2CCOCC2)nc(N[C@@H](C)CO)n1` [Example 745, (S)—N-(5-(2-((1-hydroxypropan-2-yl)amino)-6-morpholinopyrimidin-4-yl)-6-methylpyridin-3-yl)-3-(trifluoromethyl)benzamide], the IC50 was found to be 3.6 nM.

Take `Cc1ccc(NC(=O)c2ccnc(C(C)(C)C#N)c2)cc1-c1cc(N2CCOCC2)nc(N[C@@H](C)CO)n1` [Example 746]: the IC50 was found to be 4.6 nM.

For `Cc1ncc(NC(=O)c2ccnc(C(C)(C)C#N)c2)cc1-c1cc(N2CCOCC2)nc(N[C@H](C)CO)n1` [Example 747, (R)-2-(2-cyanopropan-2-yl)-N-(5-(2-((1-hydroxypropan-2-yl)amino)-6-morpholinopyrimidin-4-yl)-6-methylpyridin-3-yl)isonicotinamide], the IC50 turned out to be 19 nM.

Turning to `Cc1ncc(NC(=O)c2cccc(C(F)(F)F)c2)cc1-c1cc(N2CCOCC2)nc(N[C@H](C)CO)n1` [Example 748, (R)—N-(5-(2-((1-hydroxypropan-2-yl)amino)-6-morpholinopyrimidin-4-yl)-6-methylpyridin-3-yl)-3-(trifluoromethyl)benzamide], the IC50 was 1.9 nM.

For the compound `Cc1ccc(NC(=O)c2ccnc(C(C)(C)C#N)c2)cc1-c1cc(N2CCOCC2)nc(N[C@H](C)CO)n1` [Example 749, (R)-2-(2-cyanopropan-2-yl)-N-(3-(2-((1-hydroxypropan-2-yl)amino)-6-morpholinopyrimidin-4-yl)-4-methylphenyl)isonicotinamide], the IC50 turned out to be 1.9 nM.

Consider `Cc1ncc(NC(=O)c2ccnc(C(C)(C)C#N)c2)cc1-c1cc(N2CCOCC2)nc(NC(C)(C)CO)n1` [Example 750, 2-(2-cyanopropan-2-yl)-N-(5-(2-((1-hydroxy-2-methylpropan-2-yl)amino)-6-morpholinopyrimidin-4-yl)-6-methylpyridin-3-yl)isonicotinamide], for which the IC50 amounted to 22.4 nM.

(Values after US9694016B2 (Novartis AG, priority 2013, dated 2017).)
